Data taken from ChEMBL document CHEMBL1201862, “PubChem BioAssay data set” (2004).
One block for each compound: values may come before it. Active and inactive are the calls of the source.

Columns and labels:
[1] = growth suppression of PTEN-null colon cells, dose response, cell-based, HCT116 PTEN knockout (AID 1047); assay type: functional;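 also: HCT116 colon tumor cells with PTEN knocked out; cells exposed to compound for 60 hours before readout; potency for loss of cell viability measured by luminescence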
[2] = growth suppression of beta-catenin-knockout colon cells, dose response, cell-based, HCT116, human colon tumor (AID 1045); assay type: functional;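 also: HCT116 colon tumor cells with beta catenin knocked out; cells exposed to compound for 60 hours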
Vero = assay: West Nile virus antiviral activity, cell-based, CPE readout (AID 1621); assay type: functional; details: Chlorocebus sabaeus
CAAX prenyl protease 2 = CAAX prenyl protease 2 (Saccharomyces cerevisiae S288c, UniProt Q03530); assay type: biochemical
SUMO-activating enzyme [3] = molecular target: T1, SUMO-activating enzyme (Homo sapiens, UniProt Q9UBT2); assay: SUMOylation inhibitor hit validation, confirmation, SUMOylation inhibitor project, biochemical, AlphaScreen (AID 2018); assay type: functional
SUMO-activating enzyme [4] = molecular target: T1, SUMO-activating enzyme; assay: inhibitors of in vitro SUMOylation cascade, primary screen, biochemical, HTRF, uHTS (AID 2006); assay type: protein-complex assay
[5] = Luminescence Cell-Based Dose Retest to Confirm Inhibitors of Cancer Stem Cells. [Related pubchem assays (depositor defined):AID2717, AID2721]; assay type: functional; details: Homo sapiens
[6] = Luminescence Cell Based Dose Confirmation HTS to Identify Activators of 5'UTR Stem-Loop Driven Alpha-Synuclein mRNA Translation in H4 Neuroglioblastoma Cells. [Related pubchem assays (depositor defined):AID1813, AID1829]; assay type: functional; details: Homo sapiens
[7] = cytotoxicity in HEK-293T cells, dose response, cytotoxicity control for BCR NF-kB inhibitor project, luminescence, B-cell screen hits (AID 489021); assay type: functional, cell-based;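 also: HEK-293T cells carrying an NF-kB luciferase reporter; cells exposed to compound for about 14 hours before viability readout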
[8] = molecular target: Induced myeloid leukemia cell differentiation protein Mcl-1 (Homo sapiens, UniProt Q07820); assay: MCL1-BIM BH3 interaction inhibitors, dose response, biochemical, fluorescence polarization, BIM-BH3 peptide, 1536-well (AID 2217)
Bcl-2-like protein 1 = Bcl-2-like protein 1 (Homo sapiens, UniProt Q07817); assay: BCL-XL inhibitors, dose response, selectivity assay for MCL1 inhibitor project, biochemical, fluorescence polarization, 1536-well (AID 2218)
Hexokinase HKDC1 = Hexokinase HKDC1 (Homo sapiens, UniProt Q2TB90); assay: HKDC1 hexokinase inhibitors, dose response, biochemical, W721R variant (AID 504729); assay type: functional
[9] = molecular target: DNA (cytosine-5)-methyltransferase 1 (Homo sapiens, UniProt P26358); assay: DNMT1 methyltransferase inhibitors, confirmation, biochemical, fluorescent molecular beacon (AID 602386); assay type: functional
[10] = molecular target: 26S proteasome non-ATPase regulatory subunit 14 (Homo sapiens, UniProt O00487); assay: inhibition of proteasome subunit RPN11 – biochemical, fluorescence polarization, uHTS hits, confirmation (AID 602368); assay type: functional
[11] = molecular target: 72 kDa type IV collagenase (Homo sapiens, UniProt P08253); assay: Dose Response validation of uHTS RPN11 inhibitor hits using a MMP-2 Fluorescence assay.; assay type: functional
Prothrombin = Prothrombin (Bos taurus, UniProt P00735); assay: thrombin inhibition, dose response, biochemical, fluorescence polarization, uHTS hits (AID 602369); assay type: functional
[12] = molecular target: T2, Tyrosine-protein phosphatase non-receptor type 7 (Homo sapiens, UniProt P35236); assay type: functional
T2 sequence (P35236 whole entry): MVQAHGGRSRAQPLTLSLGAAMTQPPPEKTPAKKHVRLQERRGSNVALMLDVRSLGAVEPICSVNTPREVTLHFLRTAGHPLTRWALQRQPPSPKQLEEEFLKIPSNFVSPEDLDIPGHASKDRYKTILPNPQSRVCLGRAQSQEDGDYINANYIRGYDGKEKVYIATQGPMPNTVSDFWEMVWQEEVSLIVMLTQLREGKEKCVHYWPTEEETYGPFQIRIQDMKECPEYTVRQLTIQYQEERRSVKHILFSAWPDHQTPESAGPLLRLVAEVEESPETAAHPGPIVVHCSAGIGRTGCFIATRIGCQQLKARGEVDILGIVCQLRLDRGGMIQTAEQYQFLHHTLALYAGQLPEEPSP

[13] = molecular target: Glyceraldehyde-3-phosphate dehydrogenase (Homo sapiens, UniProt P04406)
[14] = molecular target: Heat shock cognate 71 kDa protein (Homo sapiens, UniProt P11142); assay: In Vitro Hsc70 Dose Response Fluorescence Polarization Assay. [Related pubchem assays: 1072 ]
[15] = molecular target: Heat shock 70 kDa protein 1A (Homo sapiens, UniProt P0DMV8); assay: Hsp70 inhibitors, SAR follow-up, biochemical, fluorescence polarization (AID 1072)
[16] = molecular target: T3, Dual specificity protein phosphatase 6 (Rattus norvegicus, UniProt Q64346)
T3 sequence (Q64346 whole entry): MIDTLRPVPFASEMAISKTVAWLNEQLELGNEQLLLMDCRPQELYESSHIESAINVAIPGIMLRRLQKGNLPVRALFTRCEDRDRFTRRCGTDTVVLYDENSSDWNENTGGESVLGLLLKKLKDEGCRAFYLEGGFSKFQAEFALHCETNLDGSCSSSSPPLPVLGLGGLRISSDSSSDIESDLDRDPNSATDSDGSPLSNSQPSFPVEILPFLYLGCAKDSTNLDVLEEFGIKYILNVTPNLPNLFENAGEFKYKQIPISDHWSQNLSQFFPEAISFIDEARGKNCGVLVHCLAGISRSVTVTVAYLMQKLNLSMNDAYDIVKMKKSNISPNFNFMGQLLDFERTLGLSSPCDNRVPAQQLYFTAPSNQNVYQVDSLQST

[17] = molecular target: T3, Dual specificity protein phosphatase 6; assay type: functional
[18] = molecular target: 1-acylglycerol-3-phosphate O-acyltransferase ABHD5/Perilipin-5 (Homo sapiens, UniProt Q00G26+Q8WTS1); assay: Luminescence-based biochemical high throughput dose response assay for inhibitors of the interaction of the lipase co-activator protein, abhydrolase domain containing 5 (ABHD5) with perilipin-5 (MLDP; PLIN5) (2K validation set). [Related pubchem assays (depositor defined):AID493035, AID493241]
Perilipin-1/ABHD5 = Perilipin-1/ABHD5 (Homo sapiens, UniProt O60240+Q8WTS1); assay: Luminescence-based biochemical high throughput dose response assay for inhibitors of the interaction of the lipase co-activator protein, abhydrolase domain containing 5 (ABHD5) with perilipin-1 (PLIN1) (2K validation set). [Related pubchem assays (depositor defined):AID493027, AID493057]
Chain of Perilipin-1/ABHD5 (Q8WTS1 whole entry, the tested form may be a part): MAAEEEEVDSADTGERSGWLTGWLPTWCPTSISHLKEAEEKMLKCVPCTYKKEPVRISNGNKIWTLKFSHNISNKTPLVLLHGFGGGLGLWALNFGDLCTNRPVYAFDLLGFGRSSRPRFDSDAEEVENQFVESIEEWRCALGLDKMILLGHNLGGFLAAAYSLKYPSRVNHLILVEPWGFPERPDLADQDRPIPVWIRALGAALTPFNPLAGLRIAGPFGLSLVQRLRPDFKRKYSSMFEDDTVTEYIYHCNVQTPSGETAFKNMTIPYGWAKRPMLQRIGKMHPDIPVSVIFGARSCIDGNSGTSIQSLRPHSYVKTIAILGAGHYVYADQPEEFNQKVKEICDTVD
Chain of Perilipin-1/ABHD5 (O60240 whole entry, the tested form may be a part): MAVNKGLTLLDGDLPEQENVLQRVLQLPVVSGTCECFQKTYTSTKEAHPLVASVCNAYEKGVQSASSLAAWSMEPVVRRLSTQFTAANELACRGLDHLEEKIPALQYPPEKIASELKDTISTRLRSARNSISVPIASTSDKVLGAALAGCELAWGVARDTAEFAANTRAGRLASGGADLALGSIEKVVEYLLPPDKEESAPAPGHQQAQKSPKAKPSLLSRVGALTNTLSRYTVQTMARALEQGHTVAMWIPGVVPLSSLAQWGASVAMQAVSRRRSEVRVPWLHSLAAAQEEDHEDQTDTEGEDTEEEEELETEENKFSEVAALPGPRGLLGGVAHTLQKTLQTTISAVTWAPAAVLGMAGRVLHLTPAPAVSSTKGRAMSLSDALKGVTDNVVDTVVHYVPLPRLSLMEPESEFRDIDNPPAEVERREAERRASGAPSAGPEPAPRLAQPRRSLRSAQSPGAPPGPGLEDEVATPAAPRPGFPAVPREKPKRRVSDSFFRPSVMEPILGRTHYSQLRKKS

T1 sequence (Q9UBE0 whole entry): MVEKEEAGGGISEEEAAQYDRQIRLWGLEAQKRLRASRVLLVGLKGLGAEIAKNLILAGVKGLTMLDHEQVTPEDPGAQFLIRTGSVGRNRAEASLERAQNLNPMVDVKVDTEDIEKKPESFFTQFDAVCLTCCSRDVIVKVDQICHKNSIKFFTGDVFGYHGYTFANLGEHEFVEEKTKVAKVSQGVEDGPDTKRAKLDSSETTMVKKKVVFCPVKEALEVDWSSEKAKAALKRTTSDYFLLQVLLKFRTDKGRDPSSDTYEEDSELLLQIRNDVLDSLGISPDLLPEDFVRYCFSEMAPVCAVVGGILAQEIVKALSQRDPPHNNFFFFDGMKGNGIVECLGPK
T1 sequence (Q9UBT2 whole entry): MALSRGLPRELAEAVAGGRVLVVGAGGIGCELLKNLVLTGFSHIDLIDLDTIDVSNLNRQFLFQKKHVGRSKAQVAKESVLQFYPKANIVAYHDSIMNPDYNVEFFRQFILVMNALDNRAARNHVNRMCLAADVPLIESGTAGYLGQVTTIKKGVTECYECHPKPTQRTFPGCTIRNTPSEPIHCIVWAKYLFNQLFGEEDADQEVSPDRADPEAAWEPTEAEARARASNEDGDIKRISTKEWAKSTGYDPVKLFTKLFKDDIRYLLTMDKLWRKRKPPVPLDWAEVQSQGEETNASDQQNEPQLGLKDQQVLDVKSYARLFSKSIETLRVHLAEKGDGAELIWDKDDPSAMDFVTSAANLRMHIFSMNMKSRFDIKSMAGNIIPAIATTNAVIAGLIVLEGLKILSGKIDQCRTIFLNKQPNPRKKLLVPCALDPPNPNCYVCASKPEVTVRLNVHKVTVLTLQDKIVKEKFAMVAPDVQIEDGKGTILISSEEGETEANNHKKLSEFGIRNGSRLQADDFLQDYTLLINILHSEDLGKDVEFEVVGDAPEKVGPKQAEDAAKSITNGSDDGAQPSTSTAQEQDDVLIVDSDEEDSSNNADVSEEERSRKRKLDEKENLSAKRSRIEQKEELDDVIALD
Chain of Hexokinase HKDC1 (Q2TB90 whole entry): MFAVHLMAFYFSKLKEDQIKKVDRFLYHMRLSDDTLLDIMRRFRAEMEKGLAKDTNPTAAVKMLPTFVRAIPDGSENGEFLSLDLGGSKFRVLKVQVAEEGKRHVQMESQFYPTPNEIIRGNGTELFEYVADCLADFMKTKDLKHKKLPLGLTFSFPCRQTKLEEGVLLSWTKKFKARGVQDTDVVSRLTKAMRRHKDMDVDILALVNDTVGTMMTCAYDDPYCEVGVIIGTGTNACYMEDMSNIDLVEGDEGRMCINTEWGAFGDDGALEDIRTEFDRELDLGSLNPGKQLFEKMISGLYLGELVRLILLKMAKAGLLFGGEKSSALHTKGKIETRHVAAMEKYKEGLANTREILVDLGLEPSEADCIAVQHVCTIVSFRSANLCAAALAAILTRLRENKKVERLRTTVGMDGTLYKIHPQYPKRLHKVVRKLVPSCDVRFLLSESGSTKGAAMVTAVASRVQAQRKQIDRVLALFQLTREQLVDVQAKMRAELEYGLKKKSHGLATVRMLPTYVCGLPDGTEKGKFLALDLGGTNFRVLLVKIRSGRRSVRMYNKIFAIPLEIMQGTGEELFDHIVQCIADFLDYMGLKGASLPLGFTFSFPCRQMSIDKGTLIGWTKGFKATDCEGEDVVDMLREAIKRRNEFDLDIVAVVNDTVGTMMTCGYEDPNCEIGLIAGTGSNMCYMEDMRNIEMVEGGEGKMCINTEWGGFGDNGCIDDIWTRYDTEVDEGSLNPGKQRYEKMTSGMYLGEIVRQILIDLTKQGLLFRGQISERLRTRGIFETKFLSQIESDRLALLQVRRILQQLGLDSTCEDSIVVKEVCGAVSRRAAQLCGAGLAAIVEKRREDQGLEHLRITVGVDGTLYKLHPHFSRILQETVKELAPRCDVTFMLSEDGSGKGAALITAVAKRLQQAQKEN
Chain of Glyceraldehyde-3-phosphate dehydrogenase (P04406 whole entry): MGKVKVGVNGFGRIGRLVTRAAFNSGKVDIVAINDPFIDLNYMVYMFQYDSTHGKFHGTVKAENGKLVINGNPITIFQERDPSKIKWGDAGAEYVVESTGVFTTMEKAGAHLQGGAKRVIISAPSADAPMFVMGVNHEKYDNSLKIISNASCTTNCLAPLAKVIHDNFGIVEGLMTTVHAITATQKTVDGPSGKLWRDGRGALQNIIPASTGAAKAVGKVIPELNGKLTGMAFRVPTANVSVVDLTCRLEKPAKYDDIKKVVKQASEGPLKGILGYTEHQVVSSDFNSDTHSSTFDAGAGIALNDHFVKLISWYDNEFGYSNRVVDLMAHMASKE
Chain of Induced myeloid leukemia cell differentiation protein Mcl-1 (Q07820 whole entry): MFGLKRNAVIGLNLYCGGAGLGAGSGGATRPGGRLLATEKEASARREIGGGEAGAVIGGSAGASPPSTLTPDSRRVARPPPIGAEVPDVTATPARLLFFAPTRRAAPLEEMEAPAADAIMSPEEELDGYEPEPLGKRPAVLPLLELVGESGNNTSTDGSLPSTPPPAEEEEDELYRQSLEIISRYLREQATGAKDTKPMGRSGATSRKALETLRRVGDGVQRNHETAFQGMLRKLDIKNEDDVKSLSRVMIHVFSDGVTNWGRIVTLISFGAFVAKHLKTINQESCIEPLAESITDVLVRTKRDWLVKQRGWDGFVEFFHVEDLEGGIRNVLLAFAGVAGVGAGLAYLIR
Chain of 26S proteasome non-ATPase regulatory subunit 14 (O00487 whole entry): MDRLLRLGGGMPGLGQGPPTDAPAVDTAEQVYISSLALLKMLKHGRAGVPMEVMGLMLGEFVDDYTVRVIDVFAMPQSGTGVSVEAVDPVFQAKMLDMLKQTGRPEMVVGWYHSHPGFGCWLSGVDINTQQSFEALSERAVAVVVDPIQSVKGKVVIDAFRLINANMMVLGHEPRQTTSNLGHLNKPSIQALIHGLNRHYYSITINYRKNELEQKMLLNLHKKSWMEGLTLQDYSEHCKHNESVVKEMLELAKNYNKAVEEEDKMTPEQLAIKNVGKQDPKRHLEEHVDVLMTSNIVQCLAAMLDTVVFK
Chain of Bcl-2-like protein 1 (Q07817 whole entry): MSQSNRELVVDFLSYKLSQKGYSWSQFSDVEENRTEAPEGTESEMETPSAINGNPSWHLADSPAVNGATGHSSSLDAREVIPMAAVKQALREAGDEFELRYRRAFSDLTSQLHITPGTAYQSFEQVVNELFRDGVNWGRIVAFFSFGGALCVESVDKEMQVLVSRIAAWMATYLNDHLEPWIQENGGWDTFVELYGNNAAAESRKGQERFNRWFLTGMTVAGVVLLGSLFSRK
Chain of Heat shock cognate 71 kDa protein (P11142 whole entry): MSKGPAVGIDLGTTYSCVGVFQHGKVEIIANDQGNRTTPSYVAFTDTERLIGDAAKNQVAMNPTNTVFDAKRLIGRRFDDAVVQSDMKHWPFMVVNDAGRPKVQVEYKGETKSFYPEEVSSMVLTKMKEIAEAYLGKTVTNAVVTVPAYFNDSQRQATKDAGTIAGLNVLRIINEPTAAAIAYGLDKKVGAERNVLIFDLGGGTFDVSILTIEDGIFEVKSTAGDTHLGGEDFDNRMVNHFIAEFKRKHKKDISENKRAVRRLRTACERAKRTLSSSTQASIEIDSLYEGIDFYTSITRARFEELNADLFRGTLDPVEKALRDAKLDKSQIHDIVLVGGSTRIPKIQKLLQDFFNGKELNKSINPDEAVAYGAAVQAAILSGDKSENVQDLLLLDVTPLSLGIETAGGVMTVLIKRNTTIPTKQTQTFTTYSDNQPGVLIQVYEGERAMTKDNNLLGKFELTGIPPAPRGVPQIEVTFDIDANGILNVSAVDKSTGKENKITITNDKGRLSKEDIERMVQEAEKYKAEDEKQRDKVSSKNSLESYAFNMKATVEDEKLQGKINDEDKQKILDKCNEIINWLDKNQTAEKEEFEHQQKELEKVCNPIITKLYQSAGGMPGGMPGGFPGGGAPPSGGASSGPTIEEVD
Chain of CAAX prenyl protease 2 (Q03530 whole entry): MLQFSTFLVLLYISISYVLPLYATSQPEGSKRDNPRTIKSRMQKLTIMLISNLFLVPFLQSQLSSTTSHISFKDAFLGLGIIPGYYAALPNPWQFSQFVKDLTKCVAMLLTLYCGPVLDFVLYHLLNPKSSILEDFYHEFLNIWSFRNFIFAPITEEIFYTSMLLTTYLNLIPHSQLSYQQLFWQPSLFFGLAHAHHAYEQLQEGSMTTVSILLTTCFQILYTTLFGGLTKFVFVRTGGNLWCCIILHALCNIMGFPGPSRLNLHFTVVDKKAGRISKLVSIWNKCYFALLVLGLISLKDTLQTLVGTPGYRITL

SMILES: COc1ccc(C2c3c(ncn(CCN4CCOCC4)c3=N)Oc3ccc4ccccc4c32)cc1 (centres undefined)
EC50 [1]: 12.7 µM (active)
EC50 [2]: 11.1 µM (active)
IC50 (Vero): 18.7 µM (active)
AC50 (CAAX prenyl protease 2): 15.7 µM (active)

SMILES: COc1ccc(OC)c(/C=C2\SC(NNC(=O)c3ccc4ccccc4c3)=NC2=O)c1
IC50 (SUMO-activating enzyme [3]): 2.14 µM (active)
IC50 (SUMO-activating enzyme [4]): 18.1 µM (active)
AC50 [5]: 2.36 µM (active)

SMILES: Cc1ccc(Nc2ccc(-c3ccncc3)s2)c(Br)c1
EC50 [6]: 3.92 µM (active)

SMILES: O=C(CSCCO)Nc1ccc(C23C[C@H]4C[C@@H](C2)C[C@@H](C3)C4)cc1
IC50 [7]: > 80 µM (inactive)

SMILES: N#Cc1c(SCC(=O)Nc2nc3ccc(Br)cc3s2)sc2c(O)cc(=O)[nH]c12
IC50 [8]: > 109 µM (not active)
IC50 (Bcl-2-like protein 1): > 109 µM (not active)
IC50 (Hexokinase HKDC1): 24.8 µM (inactive)
IC50 [9]: 8.28 µM (active)
IC50 [10]: 12.8 µM (active)
IC50 [11]: 3.94 µM (active)
IC50 (Prothrombin): 71.2 µM (active)

IC50 [12]: 92.9 µM (active)
IC50 [13]: > 100 µM (not active)
IC50 [14]: > 100 µM (not active)
IC50 [15]: 90.6 µM (active)
IC50 [16]: > 100 µM (inactive)
IC50 [17]: > 100 µM (inactive)
SMILES: O=C(O)c1ccc([N+](=O)[O-])c2c1NC(C(=O)O)C1CC=CC21 (centres undefined)

IC50 [18]: 16 µM (inactive)
IC50 (Perilipin-1/ABHD5): 20.8 µM (inactive)
SMILES: O=C(CN1C(=O)/C(=C/c2cccc(Br)c2)SC1=S)Nc1cccnc1
